Patent US8450315B2, “Phosphoinositide 3-kinase inhibitor compounds and methods of use” (Genentech, Inc., priority 2006, dated 2013)

Assays:
[1] = molecular target: human PI3K isoform beta (p110 beta) (Homo sapiens, UniProt P42338); assay: p110 isoform selectivity scintillation proximity assay (SPA), beta isoform; assay type: biochemical; details: fold potency over beta relative to alpha, calculated from IC50 values (SPA)
Protocol: (§1) Binding of Formula Ia and Ib compounds from Tables 1a and 1b to purified preparations of p110 isoforms alpha, beta, delta, and gamma was measured by a Scintillation Proximity Assay (SPA) to determine binding activity (IC50 μMol) and selectivity of binding of beta, delta, and gamma isoforms relative to alpha (Example 365). These values are expressed in Table 2.
(§2) The ability of Formula Ia and Ib compounds from Tables 1a and 1b to inhibit the lipid kinase activity of purified preparations of human PI3K isoforms alpha, beta, delta, and gamma was determined by a radiometric scintillation proximity assay (SPA, GE Healthcare, Amersham Biosciences). Concentration dependent inhibition at 50% (IC50 μMol) was determined for all four isoforms […] and fold potency over beta, delta, and gamma relative to alpha was calculated for a selection of compounds in Table 2. Each compound has a p110 alpha IC50<1 μMol.

[2] = molecular target: human PI3K isoform delta (p110 delta) (Homo sapiens, UniProt O00329); assay: p110 isoform selectivity scintillation proximity assay (SPA), delta isoform; assay type: biochemical; details: fold potency over delta relative to alpha, calculated from IC50 values (SPA)
human PI3K isoform delta (p110 delta), sequence (O00329 whole entry, canonical isoform): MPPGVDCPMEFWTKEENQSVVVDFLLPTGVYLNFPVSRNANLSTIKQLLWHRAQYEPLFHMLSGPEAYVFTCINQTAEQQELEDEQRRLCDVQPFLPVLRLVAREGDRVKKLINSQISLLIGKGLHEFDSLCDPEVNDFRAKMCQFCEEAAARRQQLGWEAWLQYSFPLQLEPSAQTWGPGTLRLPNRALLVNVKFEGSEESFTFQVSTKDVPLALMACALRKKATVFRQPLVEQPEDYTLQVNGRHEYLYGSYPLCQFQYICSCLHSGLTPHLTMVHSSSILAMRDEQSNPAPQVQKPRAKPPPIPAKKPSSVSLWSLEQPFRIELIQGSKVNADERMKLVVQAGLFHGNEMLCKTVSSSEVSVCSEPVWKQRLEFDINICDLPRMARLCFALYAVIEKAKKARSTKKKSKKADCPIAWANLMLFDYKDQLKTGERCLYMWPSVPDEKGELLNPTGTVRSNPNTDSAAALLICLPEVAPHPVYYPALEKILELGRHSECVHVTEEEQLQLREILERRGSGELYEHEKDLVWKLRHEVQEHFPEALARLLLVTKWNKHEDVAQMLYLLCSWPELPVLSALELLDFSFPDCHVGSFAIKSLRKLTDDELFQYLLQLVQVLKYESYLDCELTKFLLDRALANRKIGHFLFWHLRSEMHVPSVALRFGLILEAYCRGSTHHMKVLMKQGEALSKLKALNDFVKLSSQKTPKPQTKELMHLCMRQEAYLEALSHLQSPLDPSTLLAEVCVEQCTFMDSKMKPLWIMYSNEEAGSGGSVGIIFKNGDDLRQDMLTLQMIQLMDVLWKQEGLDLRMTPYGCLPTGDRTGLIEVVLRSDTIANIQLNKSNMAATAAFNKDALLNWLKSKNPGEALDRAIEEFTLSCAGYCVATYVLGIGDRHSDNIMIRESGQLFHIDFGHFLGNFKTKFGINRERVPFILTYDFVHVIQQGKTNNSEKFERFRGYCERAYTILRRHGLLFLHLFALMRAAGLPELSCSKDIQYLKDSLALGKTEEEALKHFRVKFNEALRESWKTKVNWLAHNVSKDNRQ
human PI3K isoform delta (p110 delta), sequence (P27986 whole entry partner, canonical isoform): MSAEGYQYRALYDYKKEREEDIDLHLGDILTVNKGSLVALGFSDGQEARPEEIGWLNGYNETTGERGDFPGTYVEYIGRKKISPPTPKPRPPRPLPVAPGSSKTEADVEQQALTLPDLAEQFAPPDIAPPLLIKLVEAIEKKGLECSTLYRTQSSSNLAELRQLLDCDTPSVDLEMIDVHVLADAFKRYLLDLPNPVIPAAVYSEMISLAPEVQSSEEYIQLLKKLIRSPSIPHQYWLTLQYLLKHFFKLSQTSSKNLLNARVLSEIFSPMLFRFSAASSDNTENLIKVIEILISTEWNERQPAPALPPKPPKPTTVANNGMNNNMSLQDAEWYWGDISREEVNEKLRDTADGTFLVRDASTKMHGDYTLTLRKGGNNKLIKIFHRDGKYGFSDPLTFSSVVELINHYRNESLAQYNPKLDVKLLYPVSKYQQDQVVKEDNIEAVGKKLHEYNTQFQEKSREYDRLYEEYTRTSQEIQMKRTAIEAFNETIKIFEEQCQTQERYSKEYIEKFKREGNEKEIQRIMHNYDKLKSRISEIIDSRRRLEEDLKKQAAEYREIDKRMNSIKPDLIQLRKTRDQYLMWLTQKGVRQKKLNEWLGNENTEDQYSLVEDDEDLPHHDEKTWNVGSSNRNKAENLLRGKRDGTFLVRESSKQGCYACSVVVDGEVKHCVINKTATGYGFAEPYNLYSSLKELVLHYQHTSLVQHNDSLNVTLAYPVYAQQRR
Protocol: as §1, §2

[3] = molecular target: human PI3K isoform gamma (p110 gamma) (Homo sapiens, UniProt P48736); assay: p110 isoform selectivity scintillation proximity assay (SPA), gamma isoform; assay type: biochemical; details: fold potency over gamma relative to alpha, calculated from IC50 values (SPA)
human PI3K isoform gamma (p110 gamma), sequence (P48736 whole entry, canonical isoform): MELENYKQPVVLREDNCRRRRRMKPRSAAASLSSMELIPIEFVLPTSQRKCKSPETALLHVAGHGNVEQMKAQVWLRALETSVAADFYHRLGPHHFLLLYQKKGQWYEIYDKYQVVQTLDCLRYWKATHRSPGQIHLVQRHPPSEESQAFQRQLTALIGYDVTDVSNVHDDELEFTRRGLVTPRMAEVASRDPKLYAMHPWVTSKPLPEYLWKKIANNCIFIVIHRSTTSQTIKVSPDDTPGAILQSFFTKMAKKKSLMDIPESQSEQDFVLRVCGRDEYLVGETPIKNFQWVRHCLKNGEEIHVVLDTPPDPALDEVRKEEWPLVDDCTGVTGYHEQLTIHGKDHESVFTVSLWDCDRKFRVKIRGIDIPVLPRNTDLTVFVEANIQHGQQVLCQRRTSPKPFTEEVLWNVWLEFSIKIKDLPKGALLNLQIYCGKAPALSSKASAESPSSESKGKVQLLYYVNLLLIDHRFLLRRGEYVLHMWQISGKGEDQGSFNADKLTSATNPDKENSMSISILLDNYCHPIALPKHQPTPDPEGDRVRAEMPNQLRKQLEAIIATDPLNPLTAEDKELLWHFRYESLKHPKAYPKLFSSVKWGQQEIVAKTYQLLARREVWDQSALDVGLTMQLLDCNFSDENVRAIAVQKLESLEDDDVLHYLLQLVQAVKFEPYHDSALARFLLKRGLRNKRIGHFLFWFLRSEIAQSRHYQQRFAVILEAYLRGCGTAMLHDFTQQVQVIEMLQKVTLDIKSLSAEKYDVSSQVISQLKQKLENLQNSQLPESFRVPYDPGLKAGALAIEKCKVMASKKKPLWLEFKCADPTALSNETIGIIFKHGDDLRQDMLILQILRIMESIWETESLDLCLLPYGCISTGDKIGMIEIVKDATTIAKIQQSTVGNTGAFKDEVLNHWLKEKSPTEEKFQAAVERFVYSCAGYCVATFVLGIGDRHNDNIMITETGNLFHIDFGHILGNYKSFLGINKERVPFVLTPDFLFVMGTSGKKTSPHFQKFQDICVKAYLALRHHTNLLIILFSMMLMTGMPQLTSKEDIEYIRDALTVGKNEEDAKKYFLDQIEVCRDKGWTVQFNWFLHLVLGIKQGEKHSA
Protocol: as §1, §2

[4] = cited from earlier work
[5] = cited from earlier work; remark: listed apart in the source

human PI3K isoform beta (p110 beta), sequence (P42338 whole entry, canonical isoform): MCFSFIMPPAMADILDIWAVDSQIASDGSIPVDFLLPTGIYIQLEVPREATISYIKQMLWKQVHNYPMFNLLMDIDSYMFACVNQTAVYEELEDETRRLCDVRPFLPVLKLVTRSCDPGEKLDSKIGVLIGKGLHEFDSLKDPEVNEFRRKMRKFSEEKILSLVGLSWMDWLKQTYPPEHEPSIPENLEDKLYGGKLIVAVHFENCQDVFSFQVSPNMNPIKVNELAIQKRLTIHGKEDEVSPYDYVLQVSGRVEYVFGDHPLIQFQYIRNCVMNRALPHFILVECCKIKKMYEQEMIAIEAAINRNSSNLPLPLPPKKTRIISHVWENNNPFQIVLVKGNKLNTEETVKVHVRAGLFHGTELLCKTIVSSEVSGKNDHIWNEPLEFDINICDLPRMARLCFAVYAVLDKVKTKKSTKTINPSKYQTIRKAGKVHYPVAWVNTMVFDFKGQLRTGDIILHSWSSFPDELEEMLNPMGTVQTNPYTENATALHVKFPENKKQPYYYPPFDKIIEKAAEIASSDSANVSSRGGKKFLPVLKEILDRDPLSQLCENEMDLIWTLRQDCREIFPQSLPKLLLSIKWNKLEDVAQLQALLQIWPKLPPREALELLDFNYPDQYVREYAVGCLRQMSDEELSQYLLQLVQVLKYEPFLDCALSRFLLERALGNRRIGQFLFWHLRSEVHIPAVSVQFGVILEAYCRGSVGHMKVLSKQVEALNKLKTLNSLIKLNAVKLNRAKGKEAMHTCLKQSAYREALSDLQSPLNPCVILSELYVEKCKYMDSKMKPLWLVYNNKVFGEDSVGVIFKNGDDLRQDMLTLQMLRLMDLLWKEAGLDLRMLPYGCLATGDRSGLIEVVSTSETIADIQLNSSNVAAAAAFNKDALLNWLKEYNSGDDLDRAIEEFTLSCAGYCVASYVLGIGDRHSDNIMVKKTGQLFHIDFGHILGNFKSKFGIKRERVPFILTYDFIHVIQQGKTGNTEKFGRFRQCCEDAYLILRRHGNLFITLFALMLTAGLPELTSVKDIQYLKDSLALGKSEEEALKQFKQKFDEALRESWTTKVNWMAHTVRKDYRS
human PI3K isoform beta (p110 beta), sequence (P27986 whole entry partner, canonical isoform): as the sequence (P27986 whole entry partner, canonical isoform) above

alpha/beta [1]	alpha/delta [2]	alpha/gamma [3]	SMILES	aqueous solubility [4]	metabolism in animals ([5]; animals)	pharmacokinetics ([5]; in vivo)
>10	>10	>10	Cc1c(-c2cccc(S(C)(=O)=O)c2)sc2c(N3CCOCC3)nc(-c3cnc4[nH]ccc4c3)nc12 [Compound 395, 7-methyl-6-(3-(methylsulfonyl)phenyl)-4-morpholino-2-(1H-pyrrolo[2,3-b]pyridin-5-yl)thieno[3,2-d]pyrimidine]			
>10	>10	>10	CN(Cc1cc2c(N3CCOCC3)nc(-c3cnc4[nH]ccc4c3)nc2s1)S(C)(=O)=O [Compound 417, N-methyl, N-methylsulfonyl(4-morpholino-2-(1H-pyrrolo[2,3-b]pyridin-5-yl)thieno[2,3-d]pyrimidin-6-yl)methanamine]			
>10	10	>10	CS(=O)(=O)c1cccc(-c2cc3nc(-c4cnc5[nH]ccc5c4)nc(N4CCOCC4)c3s2)c1 [Compound 418, 6-(3-(methylsulfonyl)phenyl)-4-morpholino-2-(1H-pyrrolo[2,3-b]pyridin-5-yl)thieno[3,2-d]pyrimidine]			
>10	<10	>10	CC(C)(O)c1cc2nc(-c3cnc4[nH]ccc4c3)nc(N3CCOCC3)c2s1 [Compound 422, 2-(4-morpholino-2-(1H-pyrrolo[2,3-b]pyridin-5-yl)thieno[3,2-d]pyrimidin-6-yl)-propan-2-ol]			
>10	>10	>10	c1cc2cc(-c3nc(N4CCOCC4)c4sc(-c5ccc(N6CCOCC6)nc5)cc4n3)cnc2[nH]1 [Compound 428, 4-morpholino-6-(6-morpholinopyridin-3-yl)-2-(1H-pyrrolo[2,3-b]pyridin-5-yl)thieno[3,2-d]pyrimidine]			
>10	>10	>10	Nc1nc(-c2cc3nc(-c4cnc5[nH]ccc5c4)nc(N4CCOCC4)c3s2)cs1 [Compound 429, 4-(4-morpholino-2-(1H-pyrrolo[2,3-b]pyridin-5-yl)thieno[3,2-d]pyrimidin-6-yl)thiazol-2-amine]			
			O=c1cc(N2CCOCC2)oc2c(-c3ccccc3)cccc12 [LY294002, 2-(4-morpholinyl)-8-phenyl-4H-1-benzopyran-4-one]	lack of aqueous solubility	rapidly metabolized in animals	poor pharmacokinetics
